Measurements reported in ChEMBL document CHEMBL6121055, “Strategic Mutations in Designer Native Peptides Combat NLRP3 Inflammasome Activation in Neurodegenerative Disorders” (J Med Chem, 2025).
Calls of active or inactive are those of the source. No cut-off for these calls is given here. Residues, ends and D or L forms follow the SMILES beside them.

Columns and labels:
N9 [1] = experiment: Inhibition of NLRP3 inflammasome activation in LPS/ATP-stimulated mouse N9 cells assessed as increase in mitochondrial membrane potential preincubated with LPS for 4 hrs followed by compound addition for 30 mins and measured after ATP stimulation for 1 hrs by Rhodamine 123 staining based flow cytometric analysis; type: cell-based; conditions: dose 10-30 µM, time 1.5 hrs
N9 [2] = experiment: Inhibition of NLRP3 inflammasome activation in LPS/ATP-stimulated mouse N9 cells assessed as increase in intracellular chloride level at 5 to 30 uM preincubated with LPS for 4 hrs followed by compound addition for 30 mins and measured after ATP stimulation for 45 mins by MQAE dye based analysis; type: cell-based; conditions: dose 5-30 µM, time 75.0 min
N9 [3] = experiment: Inhibition of NLRP3 inflammasome activation in LPS/tau-stimulated mouse N9 cells assessed as reduction in IL-1beta secretion at 10 to 20 uM preincubated with LPS for 4 hrs followed by compound addition for 30 mins and measured after tau stimulation for 24 hrs by ELISA; type: cell-based; conditions: dose 10-20 µM, time 24.5 hrs
N9 [4] = experiment: Inhibition of NLRP3 inflammasome activation mediated mitochondrial damage in LPS/ATP-stimulated mouse N9 cells assessed as reduction in mitochondrial ROS level by MitoSOX red staining based confocal microscopic analysis; type: cell-based; conditions: dose 10-20 µM
N9 [5] = experiment: Inhibition of AIM2 inflammasome activation mediated pyroptosis in LPS/poly(dA:dT)-stimulated mouse N9 cells assessed as reduction in cell death at 50 uM by MTT assay; type: cell-based
N9 [6] = experiment: Inhibition of NLRP3 inflammasome activation mediated pyroptosis in LPS/amyloid-beta-stimulated mouse N9 cells assessed as reduction in cell death at 5 to 30 uM by MTT assay; type: cell-based; conditions: dose 5-30 µM
[7] = molecular target: T1, Apoptosis-associated speck-like protein containing a CARD (Homo sapiens, UniProt Q9ULZ3); experiment: Binding affinity to Alexa647-labeled ASC (unknown origin) assessed as equilibrium dissociation constant incubated for 30 mins by MST analysis
T1 sequence (Q9ULZ3 whole entry): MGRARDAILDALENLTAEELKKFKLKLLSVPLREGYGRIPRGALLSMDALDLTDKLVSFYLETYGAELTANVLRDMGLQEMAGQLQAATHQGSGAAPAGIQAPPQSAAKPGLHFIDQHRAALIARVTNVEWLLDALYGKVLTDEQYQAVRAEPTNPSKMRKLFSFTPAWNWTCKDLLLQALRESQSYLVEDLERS

N9 [8] = experiment: (§1) Inhibition of NLRP3 inflammasome activation in LPS/alpha-synuclein-stimulated mouse N9 cells assessed as inhibition of ASC speck formation preincubated with LPS for 4 hrs followed by compound addition by 30 mins and measured after 24 hrs of alpha-synuclein stimulation by DAPI staining based immunofluorescence analysis; type: cell-based; conditions: dose 10-20 µM, time 24.5 hrs
[9] = Cytotoxicity against mouse N9 cells assessed as reduction in cell viability at 100 uM incubated for 24 hrs by MTT assay; type: toxicity, cell-based; conditions: n9, 24 h
N9 [10] = experiment: Inhibition of NLRP3 inflammasome activation in LPS/ATP-stimulated mouse N9 cells assessed as reduction in IL-1beta mRNA expression by measuring remaining activity at 20 uM by qRT-PCR analysis relative to control; type: cell-based
N9 [11] = experiment: Inhibition of NLRP3 inflammasome activation mediated in LPS/tau-stimulated mouse N9 cells assessed as decrease in mitochondrial ROS generation by flow cytometric analysis; type: cell-based; conditions: dose 5-30 µM
N9 [12] = experiment: Inhibition of NLRP3 inflammasome activation mediated pyroptosis in LPS/tau-stimulated mouse N9 cells assessed as reduction in cell death at 5 to 30 uM by MTT assay; type: cell-based; conditions: dose 5-30 µM
N9 [13] = experiment: Inhibition of NLRP3 inflammasome activation mediated in LPS/alpha-synuclein-stimulated mouse N9 cells assessed as decrease in mitochondrial ROS generation by flow cytometric analysis; type: cell-based; conditions: dose 5-30 µM
N9 [14] = experiment: Inhibition of NLRP3 inflammasome activation mediated in LPS/amyloid-beta-stimulated mouse N9 cells assessed as increase in mitochondrial membrane potential by flow cytometric analysis; type: cell-based; conditions: dose 5-30 µM
N9 [15] = experiment: Inhibition of NLRP3 inflammasome activation in LPS/amyloid-beta-stimulated mouse N9 cells assessed as reduction in IL-1beta secretion at 10 to 20 uM preincubated with LPS for 4 hrs followed by compound addition for 30 mins and measured after amyloid-beta stimulation for 24 hrs by ELISA; type: cell-based; conditions: dose 10-20 µM, time 24.5 hrs
N9 [16] = experiment: Inhibition of NLRP3 inflammasome activation mediated pyroptosis in LPS/ATP-stimulated mouse N9 cells assessed as reduction in cell death measured after 24 hrs by MTT assay; type: cell-based; conditions: dose 5-30 µM
N9 [17] = experiment: Inhibition of NLRP3 inflammasome activation mediated pyroptosis in LPS/ATP-stimulated mouse N9 cells assessed as reduction in cell death preincubated with compound followed by LPS stimulation by MTT assay; type: cell-based; conditions: dose 5-20 µM
N9 [18] = experiment: Inhibition of NLRP3 inflammasome activation mediated in LPS/amyloid-beta-stimulated mouse N9 cells assessed as decrease in mitochondrial ROS generation by flow cytometric analysis; type: cell-based; conditions: dose 5-30 µM
HEK-293T = experiment: Cytotoxicity against HEK293T cells assessed as reduction in cell viability upto 100 uM measured after 24 hrs by MTT assay; type: toxicity, cell-based; conditions: human
N9 [19] = experiment: Inhibition of NLRP3 inflammasome activation in LPS/amyloid-beta-stimulated mouse N9 cells assessed as reduction in IL-1beta secretion at 10 to 20 uM preincubated with LPS for 4 hrs followed by compound addition for 30 mins and measured after amyloid-beta stimulation for 16 hrs by ELISA; type: cell-based; conditions: dose 10-20 µM, time 16.5 hrs
N9 [20] = experiment: Inhibition of NLRP3 inflammasome activation in LPS/ATP-stimulated mouse N9 cells assessed as reduction in IL-1beta secretion at 10 to 20 uM preincubated with LPS for 4 hrs followed by compound addition for 30 mins and measured after ATP stimulation for 45 mins by ELISA; type: cell-based; conditions: dose 10-20 µM, time 75.0 min
[21] = molecular target: T1, Apoptosis-associated speck-like protein containing a CARD; experiment: Binding affinity to ASC (unknown origin) assessed as shift in ASC protein band at 0.5 to 2 uM by native PAGE analysis; conditions: dose 0.5-2 µM
[22] = Inhibition of NLRP3 inflammasome activation in LPS/ATP-stimulated mouse N9 cells assessed as inhibition of caspase-1 mRNA expression by qRT-PCR analysis; type: cell-based
N9 [23] = experiment: Inhibition of NLRP3 inflammasome activation in LPS/tau-stimulated mouse N9 cells assessed as inhibition of ASC speck formation preincubated with LPS for 4 hrs followed by compound addition by 30 mins and measured after 24 hrs of tau stimulation by DAPI staining based immunofluorescence analysis; type: cell-based; conditions: dose 10-20 µM, time 24.5 hrs
N9 [24] = experiment: as §1, with “LPS/amyloid-beta-stimulated” for “LPS/alpha-synuclein-stimulated”, “16” for “24”, “amyloid-beta” for “alpha-synuclein”; type: cell-based; conditions: dose 10-20 µM, time 16.5 hrs
N9 [25] = experiment: Inhibition of NLRP3 inflammasome activation in LPS/ATP-stimulated mouse N9 cells assessed as increase in intracellular potassium level at 10 to 25 uM preincubated with LPS for 4 hrs followed by compound addition for 30 mins and measured after ATP stimulation for 1 hrs by ICP-OES analysis; type: cell-based; conditions: dose 10-25 µM, time 1.5 hrs
N9 [26] = experiment: Inhibition of NLRP3 inflammasome activation in LPS/ATP-stimulated mouse N9 cells assessed as inhibition of GSDMD cleavage by DAPI staining based immunofluorescence analysis; type: cell-based; conditions: dose 10-20 µM
N9 [27] = experiment: Inhibition of NLRP3 inflammasome activation mediated in LPS/alpha-synuclein-stimulated mouse N9 cells assessed as increase in mitochondrial membrane potential by flow cytometric analysis; type: cell-based; conditions: dose 5-30 µM
N9 [28] = experiment: Inhibition of NLRP3 inflammasome activation in LPS/ATP-stimulated mouse N9 cells assessed as increase in intracellular chloride level preincubated with LPS for 4 hrs followed by compound addition for 30 mins and measured after ATP stimulation for 50 mins by MQAE dye based analysis; type: cell-based; conditions: time 80.0 min
N9 [29] = experiment: Inhibition of NLRP3 inflammasome activation mediated pyroptosis in LPS/alpha-synuclein-stimulated mouse N9 cells assessed as reduction in cell death at 5 to 30 uM by MTT assay; type: cell-based; conditions: dose 5-30 µM

Kd [7]: ~0.149 µM | Activity [21]: Active | IC50 [22]: 16.2 µM
Compound: CC[C@H](C)[C@H](NC(=O)[C@H](C)NC(=O)[C@H](C)NC(=O)[C@H](CC(C)C)NC(=O)[C@@H](NC(=O)[C@H](Cc1c[nH]c2ccccc12)NC(=O)[C@@H](N)C(C)C)[C@@H](C)CC)C(=O)N[C@@H](CC(N)=O)C(=O)N[C@@H](CCCNC(=N)N)C(=O)N[C@@H](CCCNC(=N)N)C(=O)O (H-VWILAAINRR-OH)
inhibition (N9 [1]): Dose-dependent-effect | inhibition (N9 [2]): Active | inhibition (N9 [3]): Dose-dependent-effect | inhibition (N9 [4]): Dose-dependent-effect | inhibition (N9 [5]): Active | inhibition (N9 [6]): Active | inhibition (N9 [8]): Dose-dependent-effect | Activity [9]: Non-toxic | Activity (N9 [10]): 50% | inhibition (N9 [11]): Dose-dependent-effect | inhibition (N9 [12]): Active | inhibition (N9 [13]): Dose-dependent-effect | inhibition (N9 [14]): Dose-dependent-effect | inhibition (N9 [15]): Dose-dependent-effect | inhibition (N9 [16]): Dose-dependent-effect | inhibition (N9 [17]): Dose-dependent-effect | inhibition (N9 [18]): Dose-dependent-effect | Activity (HEK-293T): Non-toxic | inhibition (N9 [19]): Dose-dependent-effect | inhibition (N9 [20]): Active | inhibition (N9 [23]): Dose-dependent-effect | inhibition (N9 [24]): Dose-dependent-effect | inhibition (N9 [25]): Active | inhibition (N9 [26]): Dose-dependent-effect | inhibition (N9 [27]): Dose-dependent-effect | inhibition (N9 [28]): Active | inhibition (N9 [29]): Active
